Experimental data taken from patent publication US20230321140A1, “MULTIPLE MEDIATORS TARGETED MULTIFUNCTIONAL NANOPARTICLES AND USES THEREOF” (The Trustees of Columbia University in the City of New York, priority 2022, published 2023).

Legend:
E. coli = experiment: Antibacterial effect (OD 600 nm); type: cell-based, Escherichia coli; details: 6 h and 12 h
Protocol: E. coli was used to investigate the anti-bacterial effect of NPs. E. coli diluted in Luria-Bertani liquid medium were seeded in a 96-well plate at a density of 10^6/mL and were treated with NPs at different concentrations. After 6 h and 12 h of incubation with NPs at 37° C., the proliferation of bacteria was determined with a multiwell plate reader by measuring the OD at 600 nm.

calf thymus DNA = experiment: PicoGreen DNA binding affinity assay; details: TE buffer without FBS; calf thymus DNA 0.5 μg/mL
Protocol: FIGS. 2A-B show DNA binding affinity of NPs at different NP:DNA mass ratios (see legend) in TE buffer without Fetal Bovine Serum (FBS) (A) and with 10% FBS (B). [Calf thymus DNA]=0.5 μg/mL. (C) Cytotoxicity of NPs to RAW 264.7 cells. (D) Colocalization of FITC-labeled TA-Zn-Gen NPs and Cy5-labeled CpG in lysosomes (CLSM images). Scale bar, 10 μm. Quant-iT PicoGreen (12.5 μL) and calf thymus DNA ([…], 25 μL) were mixed with 1×TE buffer (10 mL) in the dark. NPs at different concentrations in 100 μL together with 100 μL of the above solution were added to a 96-well black plate and incubated at 37° C. for 30 min. The fluorescence intensity of the Picogreen-DNA complex at 520 nm was measured with a multiwell plate reader via excitation at 490 nm.

Molecule	antibacterial activity, NPs versus free components (E. coli)	DNA binding affinity (calf thymus DNA)
O=C(OC[C@H]1O[C@@H](OC(=O)c2cc(O)c(O)c(OC(=O)c3cc(O)c(O)c(O)c3)c2)[C@H](OC(=O)c2cc(O)c(O)c(OC(=O)c3cc(O)c(O)c(O)c3)c2)[C@@H](OC(=O)c2cc(O)c(O)c(OC(=O)c3cc(O)c(O)c(O)c3)c2)[C@@H]1OC(=O)c1cc(O)c(O)c(OC(=O)c2cc(O)c(O)c(O)c2)c1)c1cc(O)c(O)c(OC(=O)c2cc(O)c(O)c(O)c2)c1 [tannic acid]	slight antibacterial activity at a high concentration	also exhibited DNA binding
gentamicin	potent concentration-dependent antibacterial effect	–
